“Also recorded” adds a separate entry of the source.
Experiments:
[1] = Solubility/aggregation of ICG in PBS
[2] = test system: PC3 cells; test: Seahorse Mito Stress test, oxygen consumption rate; settings: Orlistat 50 μM, 12 hours
Description: PC3 cells were seeded into 24-well XF analysis microplates. The cells were the treated with vehicle (•) or Orlistat (50 μM. ? ) for 12 hours before analysis, according to Seahorse protocols. Oxygen consumption rate (OCR), a measure of mitochondrial capacity, was determined using a Seahorse Mito Stress test on a Seahorse XF24 extracellular flux analyzer.

[3] = test system: PC3 prostate, RKO colorectal, and MDA-MB-231 breast cancer cells; test: In vitro cytotoxicity, WST-8 assay; settings: Nano-Orl (PBA ligand) dosed equivalent to 25 m Orlistat, 24 h + 24 h
Description: Media alone or containing experimental or control agents was refreshed after 24 h and allowed to incubate for 24 additional hours. Cytotoxicity was then evaluated using the WST-8 assay (Dojindo, Rockville, Md.).

[4] = cited from earlier work
[5] = test system: cells; test: Cytotoxicity after pre-incubation in PBS (entrapment/hydrolytic stability); format: cell-based; settings: pre-incubated in PBS prior to incubating with cells
[6] = target: FASN (Homo sapiens, UniProt P49327); test: 14C-acetate incorporation study (FASN inhibition); settings: PC3 cells
Sequence of FASN (P49327 whole entry): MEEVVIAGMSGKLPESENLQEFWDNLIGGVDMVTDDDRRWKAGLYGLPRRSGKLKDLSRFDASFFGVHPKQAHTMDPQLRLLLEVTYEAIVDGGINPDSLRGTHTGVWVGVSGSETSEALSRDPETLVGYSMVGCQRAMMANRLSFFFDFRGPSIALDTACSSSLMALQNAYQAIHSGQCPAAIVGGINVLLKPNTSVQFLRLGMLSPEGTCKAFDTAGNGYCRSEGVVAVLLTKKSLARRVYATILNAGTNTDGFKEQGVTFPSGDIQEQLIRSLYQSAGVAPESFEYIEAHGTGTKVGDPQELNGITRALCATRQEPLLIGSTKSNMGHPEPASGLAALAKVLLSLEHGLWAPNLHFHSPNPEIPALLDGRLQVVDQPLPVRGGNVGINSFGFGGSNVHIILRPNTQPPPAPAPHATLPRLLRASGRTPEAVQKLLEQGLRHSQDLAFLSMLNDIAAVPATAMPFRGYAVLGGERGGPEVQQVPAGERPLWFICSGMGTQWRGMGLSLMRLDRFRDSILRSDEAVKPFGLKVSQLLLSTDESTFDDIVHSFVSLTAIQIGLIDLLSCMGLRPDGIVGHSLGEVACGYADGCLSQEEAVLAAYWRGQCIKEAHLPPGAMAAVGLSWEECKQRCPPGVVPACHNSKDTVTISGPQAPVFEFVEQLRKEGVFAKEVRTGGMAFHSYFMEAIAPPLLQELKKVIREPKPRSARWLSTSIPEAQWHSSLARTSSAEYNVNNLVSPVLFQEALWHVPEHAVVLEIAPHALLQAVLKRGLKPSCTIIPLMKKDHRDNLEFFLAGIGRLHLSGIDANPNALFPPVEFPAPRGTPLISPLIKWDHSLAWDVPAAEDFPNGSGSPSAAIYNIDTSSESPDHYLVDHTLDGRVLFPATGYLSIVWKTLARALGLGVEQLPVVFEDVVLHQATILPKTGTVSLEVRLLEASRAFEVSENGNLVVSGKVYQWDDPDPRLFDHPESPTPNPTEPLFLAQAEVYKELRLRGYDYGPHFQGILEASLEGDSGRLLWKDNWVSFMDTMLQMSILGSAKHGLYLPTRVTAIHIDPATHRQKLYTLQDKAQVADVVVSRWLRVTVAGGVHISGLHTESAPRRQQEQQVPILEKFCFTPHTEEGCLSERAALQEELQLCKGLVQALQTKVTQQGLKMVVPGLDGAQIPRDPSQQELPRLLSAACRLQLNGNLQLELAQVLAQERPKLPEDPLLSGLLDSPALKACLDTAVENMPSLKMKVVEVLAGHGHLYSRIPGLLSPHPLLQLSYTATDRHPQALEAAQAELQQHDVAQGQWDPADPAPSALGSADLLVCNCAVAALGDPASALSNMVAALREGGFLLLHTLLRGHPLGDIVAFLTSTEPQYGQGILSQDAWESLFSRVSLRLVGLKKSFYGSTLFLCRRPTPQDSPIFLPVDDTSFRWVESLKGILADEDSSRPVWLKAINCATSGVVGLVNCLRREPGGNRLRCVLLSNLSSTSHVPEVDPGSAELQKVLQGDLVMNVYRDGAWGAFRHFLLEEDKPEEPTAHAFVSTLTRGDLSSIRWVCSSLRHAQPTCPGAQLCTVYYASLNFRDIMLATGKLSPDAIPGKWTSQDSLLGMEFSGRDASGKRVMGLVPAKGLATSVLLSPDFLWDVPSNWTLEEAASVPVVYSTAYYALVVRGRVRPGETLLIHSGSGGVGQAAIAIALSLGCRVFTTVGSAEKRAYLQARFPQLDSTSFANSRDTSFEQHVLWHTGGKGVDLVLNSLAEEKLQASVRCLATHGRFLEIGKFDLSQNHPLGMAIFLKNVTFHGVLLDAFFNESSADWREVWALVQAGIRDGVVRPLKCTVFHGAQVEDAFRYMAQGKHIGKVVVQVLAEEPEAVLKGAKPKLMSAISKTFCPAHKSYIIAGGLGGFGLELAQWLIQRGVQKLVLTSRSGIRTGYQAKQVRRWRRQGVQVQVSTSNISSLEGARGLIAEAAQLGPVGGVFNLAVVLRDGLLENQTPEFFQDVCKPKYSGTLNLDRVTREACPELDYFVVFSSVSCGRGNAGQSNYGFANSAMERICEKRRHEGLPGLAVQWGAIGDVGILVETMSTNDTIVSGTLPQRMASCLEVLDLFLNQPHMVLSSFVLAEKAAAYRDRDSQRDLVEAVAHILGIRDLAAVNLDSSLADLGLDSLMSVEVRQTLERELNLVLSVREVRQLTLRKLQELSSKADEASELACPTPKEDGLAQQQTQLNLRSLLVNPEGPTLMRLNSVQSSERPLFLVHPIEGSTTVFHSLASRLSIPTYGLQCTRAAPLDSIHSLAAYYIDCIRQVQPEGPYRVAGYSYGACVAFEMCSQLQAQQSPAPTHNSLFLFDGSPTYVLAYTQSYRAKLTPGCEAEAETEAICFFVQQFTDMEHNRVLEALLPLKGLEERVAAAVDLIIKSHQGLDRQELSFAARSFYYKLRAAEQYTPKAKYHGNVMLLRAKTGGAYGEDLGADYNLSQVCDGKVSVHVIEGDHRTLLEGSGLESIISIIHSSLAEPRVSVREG
Description: Next, 1 μCi of ^14C-acetate will be added to the cells and be incubated for an additional 2 h. After washing cells with PBS/EDTA, the fatty acids will be extracted with chloroform/methanol (1:1) and quantified by scintillation counting using standard protocols.

## CC1(C)C(/C=C/C=C/C=C/C=C2\N(CCCCS(=O)(=O)O)c3ccc4ccccc4c3C2(C)C)=[N+](CCCCS(=O)(=O)[O-])c2ccc3ccccc3c21 [ICG, indocyanine green]
[1]
  solubility in PBS: not soluble in PBS; also recorded: rapidly aggregates in PBS

## CCCCCCCCCCC[C@@H](C[C@@H]1OC(=O)[C@H]1CCCCCC)OC(=O)[C@H](CC(C)C)NC=O [Orlistat]
[2]
  mitochondrial capacity (oxygen consumption rate): decreases mitochondrial capacity; also recorded: negatively impacts mitochondrial capacity
[3]
  viability relative to the NP vehicle media control: consistent with free Orlistat
[4]; compared to a sham control
  tumor growth in vivo: inhibits tumor growth in vivo
[4]; in vivo
  bioavailability: poor bioavailability
[5]
  cytotoxicity after pre-incubation in PBS: rendered ineffective; also recorded: dramatically reduces its efficacy

## CCCCCCCCCCCCCCOc1ccc(C(=O)O)o1 [TOFA]
[6]
  14C-acetate incorporation into lipids (FASN inhibition): inhibited FASN mediated incorporation of acetate in lipids

Source: patent US10272088B2, “FAS inhibitors and methods associated therewith” (Wake Forest University Health Sciences, priority 2014, dated 2019)
